Literature values, collected in patent US9309247B2, “2-substituted imidazo[4,5-D]phenanthroline derivatives and their use in the treatment of cancer” (Aptose Biosciences Inc., priority 2013, dated 2016).

Experiments:
[1] = tested on: Saccharmyces cerevisiae strains that have mutations in genes related to cell cycle control and DNA repair damage; conditions: Stage0 testing, single concentration, six yeast strains; cited from earlier work
[2] = NCI screen; cited from earlier work

Structure (SMILES): Cc1ccccc1-c1nc2c3ccccc3c3ccccc3c2[nH]1 [NCI #338970]
- activity in the Yeast Anticancer Drug Screen [1]: active
- activity in the In Vivo Anticancer Drug Screen [2]: None of these three compounds showed any activity
